Experiments:
tyrosinase = molecular target: T1, tyrosinase (Agaricus bisporus, UniProt C7FF04); assay: Fluorescence spectra analysis of tyrosinase; assay type: binding, mushroom; settings: 6 mM; excitation 280 nm
T1 construct: purchased Sigma-Aldrich
Description: Carboxylic acid solutions at various concentrations were mixed with PBS buffer and tyrosinase (final concentration of 60 U/mL) and then transferred to a black 96-well plate. Fluorescence analysis was conducted using a microplate reader (Infinite 200Pro, Tecan).

[1] = L-DOPA auto-oxidation analysis; settings: for IC50: 37 °C, 12 h, calculated using SPSS, read-out: IC50 for L-DOPA auto-oxidation inhibition
Description: A 5 mM L-DOPA solution was prepared in PBS buffer (pH 7.4). Subsequently, 240 μL of carboxylic acid solution, 360 μL of L-DOPA solution, and 120 μL of PBS buffer were sequentially mixed. The mixture was then incubated at 37 °C for 12 h. […] Deionized water was used as the control. The inhibition of L-DOPA auto-oxidation was calculated using the same method as the melanin content analysis.

T1 sequence (C7FF04 1-392 limits assumed): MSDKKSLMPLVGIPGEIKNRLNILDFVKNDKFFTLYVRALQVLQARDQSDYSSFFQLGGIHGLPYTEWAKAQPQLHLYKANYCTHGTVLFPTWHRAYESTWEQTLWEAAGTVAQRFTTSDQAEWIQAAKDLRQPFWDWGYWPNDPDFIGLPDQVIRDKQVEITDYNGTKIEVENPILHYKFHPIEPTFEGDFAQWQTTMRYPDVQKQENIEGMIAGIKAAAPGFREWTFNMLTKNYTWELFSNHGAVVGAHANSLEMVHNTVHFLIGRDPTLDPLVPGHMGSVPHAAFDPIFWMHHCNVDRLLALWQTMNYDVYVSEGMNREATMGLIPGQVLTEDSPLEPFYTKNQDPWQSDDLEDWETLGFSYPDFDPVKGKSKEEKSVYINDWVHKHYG

Row | SMILES | decrease of tyrosinase fluorescence intensity (tyrosinase) [%] | L-DOPA auto-oxidation inhibition rate ([1]; 1.5 mM) | IC50 [1] [µM] | L-DOPA auto-oxidation inhibition rate ([1]; 0.75 mM)
1 | O=C(O)C(O)Cc1ccccc1 (stereo not drawn) [3-phenyllactic acid] | 29.3 | exceeding 80% | 630 | 
2 | O=C(O)CC(O)C(=O)O (stereo not drawn) [malic acid] | 29.0 |  | 380 | exceeding 80%

Source: paper PMC11990924, “Inhibition of Tyrosinase and Melanogenesis by Carboxylic Acids: Mechanistic Insights and Safety Evaluation” (Molecules, 2025)
